Experimental data as given in ChEMBL document CHEMBL3779879, “Structural hybridization of three aminoglycoside antibiotics yields a potent broad-spectrum bactericide that eludes bacterial resistance enzymes” (2016).
≈ marks a conversion by molar mass, not a printed value.

Key:
Assay type in all cases: functional
[1] = system: Pseudomonas aeruginosa; assay: Antibacterial activity against Pseudomonas aeruginosa expressing ANT(4')-II
[2] = system: Pseudomonas aeruginosa; assay: Antibacterial activity against Pseudomonas aeruginosa expressing AAC(6')-II
[3] = system: Escherichia coli; assay: Antibacterial activity against Escherichia coli expressing ANT(2'')-I
[4] = system: Escherichia coli; assay: Antibacterial activity against Escherichia coli ATCC 25922
[5] = system: Pseudomonas aeruginosa; assay: Antibacterial activity against Pseudomonas aeruginosa ATCC 27853 expressing APH(3')-IIa
[6] = system: Escherichia coli; assay: Antibacterial activity against Escherichia coli expressing APH(3')-Ib
[7] = system: Staphylococcus aureus; assay: Antibacterial activity against Staphylococcus aureus expressing ANT(4')-I
[8] = system: Acinetobacter baumannii; assay: Antibacterial activity against Acinetobacter baumannii expressing AAC(3)-I, APH(3')-VI, ANT(2'')-I
[9] = system: Staphylococcus aureus; assay: Antibacterial activity against Staphylococcus aureus expressing AAC(6')/APH(2'')
[10] = system: Staphylococcus aureus; assay: Antibacterial activity against Staphylococcus aureus expressing APH(3'/5'')-III
[11] = system: Staphylococcus aureus; assay: Antibacterial activity against Staphylococcus aureus ATCC 29213
[12] = system: Escherichia coli; assay: Antibacterial activity against Escherichia coli expressing A-site methyltransferase ArmA
[13] = system: Enterobacter cloacae; assay: Antibacterial activity against Enterobacter cloacae expressing APH(3')-I, ANT(2'')-I, AAC(6')
[14] = system: Acinetobacter baumannii; assay: Antibacterial activity against Acinetobacter baumannii
[15] = system: Klebsiella pneumoniae; assay: Antibacterial activity against Klebsiella pneumoniae ATCC 10031
[16] = system: Escherichia coli; assay: Antibacterial activity against Escherichia coli expressing AAC(3)-IV

Compound	MIC [1]	MIC [2]	MIC [3]	MIC [4]	MIC [5]	MIC [6]	MIC [7]	MIC [8]	MIC [9]	MIC [10]	MIC [11]	MIC [12]	MIC [13]	MIC [14]	MIC [15]	MIC [16]
NCC[C@H](O)C(=O)N[C@@H]1C[C@H](N)[C@@H](O[C@H]2O[C@H](CO)[C@@H](O)[C@H](O)[C@H]2N)[C@H](O[C@@H]2O[C@H](CO)[C@@H](O[C@H]3O[C@@H](CN)[C@@H](O)[C@H](O)[C@H]3N)[C@H]2O)[C@H]1O	4 µg/mL (≈ 5.58 µM)	8 µg/mL (≈ 11.2 µM)	8 µg/mL (≈ 11.2 µM)	2 µg/mL (≈ 2.79 µM)	8 µg/mL (≈ 11.2 µM)	2 µg/mL (≈ 2.79 µM)	> 64 µg/mL	64 µg/mL (≈ 89.3 µM)	32 µg/mL (≈ 44.6 µM)	32 µg/mL (≈ 44.6 µM)	2 µg/mL (≈ 2.79 µM)	4 µg/mL (≈ 5.58 µM)	8 µg/mL (≈ 11.2 µM)	2 µg/mL (≈ 2.79 µM)	1 µg/mL (≈ 1.4 µM)	4 µg/mL (≈ 5.58 µM)
NCC[C@H](O)C(=O)N[C@@H]1C[C@H](N)[C@@H](O[C@H]2O[C@H](CN)[C@@H](O)[C@H](O)[C@H]2N)[C@H](O[C@@H]2O[C@H](CO)[C@@H](O)[C@H]2O)[C@H]1O	> 32 µg/mL	> 32 µg/mL	4 µg/mL (≈ 7.2 µM)	2 µg/mL (≈ 3.6 µM)	> 32 µg/mL	1 µg/mL (≈ 1.8 µM)	> 32 µg/mL	> 32 µg/mL	> 32 µg/mL	> 32 µg/mL	8 µg/mL (≈ 14.4 µM)	2 µg/mL (≈ 3.6 µM)	32 µg/mL (≈ 57.6 µM)	1 µg/mL (≈ 1.8 µM)	1 µg/mL (≈ 1.8 µM)	2 µg/mL (≈ 3.6 µM)
NCC1=CC[C@@H](N)[C@@H](O[C@H]2[C@H](O[C@@H]3O[C@H](CO)[C@@H](O)[C@H]3O)[C@@H](O)[C@H](N)C[C@@H]2N)O1	64 µg/mL (≈ 152 µM)	> 64 µg/mL	> 64 µg/mL	64 µg/mL (≈ 152 µM)	16 µg/mL (≈ 38.1 µM)	64 µg/mL (≈ 152 µM)	16 µg/mL (≈ 38.1 µM)	> 64 µg/mL	> 64 µg/mL	> 64 µg/mL	16 µg/mL (≈ 38.1 µM)	64 µg/mL (≈ 152 µM)	> 64 µg/mL	> 64 µg/mL	16 µg/mL (≈ 38.1 µM)	> 64 µg/mL
NCC[C@H](O)C(=O)N[C@@H]1C[C@H](N)[C@@H](O[C@H]2OC(CN)=CC[C@H]2N)[C@H](O[C@@H]2O[C@H](CO)[C@@H](O)[C@H]2O)[C@H]1O	8 µg/mL (≈ 15.3 µM)	16 µg/mL (≈ 30.7 µM)	8 µg/mL (≈ 15.3 µM)	8 µg/mL (≈ 15.3 µM)	4 µg/mL (≈ 7.67 µM)	4 µg/mL (≈ 7.67 µM)	8 µg/mL (≈ 15.3 µM)	8 µg/mL (≈ 15.3 µM)	16 µg/mL (≈ 30.7 µM)	16 µg/mL (≈ 30.7 µM)	8 µg/mL (≈ 15.3 µM)	8 µg/mL (≈ 15.3 µM)	> 64 µg/mL	4 µg/mL (≈ 7.67 µM)	4 µg/mL (≈ 7.67 µM)	8 µg/mL (≈ 15.3 µM)
N[C@@H]1CC=C(CO)O[C@@H]1O[C@H]1[C@H](O[C@@H]2O[C@H](CO)[C@@H](O)[C@H]2O)[C@@H](O)[C@H](N)C[C@@H]1N	> 64 µg/mL	> 64 µg/mL	> 64 µg/mL	> 64 µg/mL	> 64 µg/mL	> 64 µg/mL	> 64 µg/mL	> 64 µg/mL	> 64 µg/mL	> 64 µg/mL	> 64 µg/mL	> 64 µg/mL	> 64 µg/mL	> 64 µg/mL	> 64 µg/mL	> 64 µg/mL
NCC1O[C@H](O[C@H]2[C@@H](O)[C@H](O[C@H]3[C@H](O)[C@@H](N)C[C@@H](N)[C@@H]3O[C@H]3O[C@H](CN)[C@@H](O)[C@H](O)[C@H]3N)O[C@@H]2CO)[C@H](N)[C@@H](O)[C@@H]1O (stereo partly specified)	8 µg/mL (≈ 13 µM)	8 µg/mL (≈ 13 µM)	2 µg/mL (≈ 3.25 µM)	2 µg/mL (≈ 3.25 µM)	32 µg/mL (≈ 52.1 µM)	64 µg/mL (≈ 104 µM)	> 64 µg/mL	> 64 µg/mL	> 64 µg/mL	> 64 µg/mL	0.5 µg/mL (≈ 0.813 µM)	1 µg/mL (≈ 1.63 µM)	> 64 µg/mL	1 µg/mL (≈ 1.63 µM)	0.5 µg/mL (≈ 0.813 µM)	2 µg/mL (≈ 3.25 µM)
CNCC1=CC[C@H](N)[C@H](O[C@H]2[C@H](O[C@@H]3O[C@H](CO)[C@@H](O[C@@H]4O[C@H](CN)[C@H](O)[C@@H](O)[C@@H]4N)[C@H]3O)[C@@H](O)[C@H](N)C[C@@H]2N)O1	4 µg/mL (≈ 6.73 µM)	> 64 µg/mL	16 µg/mL (≈ 26.9 µM)	8 µg/mL (≈ 13.5 µM)	2 µg/mL (≈ 3.36 µM)	> 64 µg/mL	2 µg/mL (≈ 3.36 µM)	> 64 µg/mL	> 64 µg/mL	16 µg/mL (≈ 26.9 µM)	1 µg/mL (≈ 1.68 µM)	16 µg/mL (≈ 26.9 µM)	> 64 µg/mL	4 µg/mL (≈ 6.73 µM)	2 µg/mL (≈ 3.36 µM)	8 µg/mL (≈ 13.5 µM)
NCC[C@H](O)C(=O)N[C@@H]1C[C@H](N)[C@@H](O[C@H]2OC(CN)=CC[C@H]2N)[C@H](O[C@@H]2O[C@H](CO)[C@@H](O[C@@H]3O[C@H](CN)[C@H](O)[C@@H](O)[C@@H]3N)[C@H]2O)[C@H]1O	0.5 µg/mL (≈ 0.733 µM)	0.5 µg/mL (≈ 0.733 µM)	4 µg/mL (≈ 5.87 µM)	0.5 µg/mL (≈ 0.733 µM)	0.25 µg/mL (≈ 0.367 µM)	0.25 µg/mL (≈ 0.367 µM)	1 µg/mL (≈ 1.47 µM)	1 µg/mL (≈ 1.47 µM)	2 µg/mL (≈ 2.93 µM)	1 µg/mL (≈ 1.47 µM)	0.5 µg/mL (≈ 0.733 µM)	1 µg/mL (≈ 1.47 µM)	8 µg/mL (≈ 11.7 µM)	0.5 µg/mL (≈ 0.733 µM)	0.5 µg/mL (≈ 0.733 µM)	1 µg/mL (≈ 1.47 µM)
CN[C@@H](C)[C@@H]1CC[C@@H](N)[C@@H](O[C@H]2[C@H](O)[C@@H](O[C@H]3OC[C@](C)(O)[C@H](NC)[C@H]3O)[C@H](N)C[C@@H]2N)O1	2 µg/mL (≈ 4.19 µM)	32 µg/mL (≈ 67 µM)	64 µg/mL (≈ 134 µM)	0.5 µg/mL (≈ 1.05 µM)	0.5 µg/mL (≈ 1.05 µM)	0.25 µg/mL (≈ 0.523 µM)	0.5 µg/mL (≈ 1.05 µM)	> 64 µg/mL	> 64 µg/mL	0.5 µg/mL (≈ 1.05 µM)	0.5 µg/mL (≈ 1.05 µM)	> 64 µg/mL	32 µg/mL (≈ 67 µM)	2 µg/mL (≈ 4.19 µM)	0.25 µg/mL (≈ 0.523 µM)	16 µg/mL (≈ 33.5 µM)
NC[C@H]1O[C@@H](O[C@H]2[C@@H](O)[C@H](O[C@@H]3[C@@H](O)[C@H](N)C[C@H](N)[C@H]3O[C@@H]3OC(CO)=CC[C@@H]3N)O[C@@H]2CO)[C@@H](N)[C@H](O)[C@H]1O (stereo in doubt)	> 64 µg/mL	> 64 µg/mL	> 64 µg/mL	> 64 µg/mL	> 64 µg/mL	> 64 µg/mL	16 µg/mL (≈ 27.5 µM)	> 64 µg/mL	> 64 µg/mL	> 64 µg/mL	8 µg/mL (≈ 13.8 µM)	> 64 µg/mL	> 64 µg/mL	> 64 µg/mL	> 64 µg/mL	> 64 µg/mL
NCC1=CC[C@H](N)[C@H](O[C@H]2[C@H](O[C@@H]3O[C@H](CO)[C@@H](O[C@@H]4O[C@H](CN)[C@H](O)[C@@H](O)[C@@H]4N)[C@H]3O)[C@@H](O)[C@H](N)C[C@@H]2N)O1 (stereo in doubt)	1 µg/mL (≈ 1.72 µM)	> 64 µg/mL	2 µg/mL (≈ 3.44 µM)	2 µg/mL (≈ 3.44 µM)	0.5 µg/mL (≈ 0.861 µM)	> 64 µg/mL	1 µg/mL (≈ 1.72 µM)	> 64 µg/mL	64 µg/mL (≈ 110 µM)	16 µg/mL (≈ 27.6 µM)	1 µg/mL (≈ 1.72 µM)	2 µg/mL (≈ 3.44 µM)	> 64 µg/mL	1 µg/mL (≈ 1.72 µM)	0.5 µg/mL (≈ 0.861 µM)	8 µg/mL (≈ 13.8 µM)
